In the assay the test system is CEM cells HIV-1 protection, formazan growth assay. Description: NCI AIDS Antiviral Assay. To be noted: for pIC50: measured here: growth of uninfected CEM cells. Put shortly: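 Soluble formazan readout of cell growth; CEM cells ± HIV-1; 5 drug concs. ≥50% protection → retest; ≥50% again = moderately active; reproducible 100% = confirmed active.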

pEC50, pIC50: −log10 of the molar value. Active and inactive are the calls of the source.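 How the source made its calls: active means compounds giving half or more protection of infected cells from virus-caused growth loss, again on retest; inactive means the rest.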

For `COc1ccccc1C1c2cc3c(cc2OC(N2CCCC2)C1C)OCO3` (stereo not drawn), the pEC50 is less than 3.70 and the pIC50 is 4.79.

On to `COc1cc2c(cc1OC)C1Cc3ccc(OC)c(OC)c3C[N+]1([O-])CC2` (stereo not drawn), for which the pEC50 was less than 3.87 and the pIC50 is less than 3.87.

As to `O=C(Nc1nc(C23CC4CC(CC(C4)C2)C3)cs1)c1cc2cc(Br)cc(Br)c2oc1=O`, the pEC50 is less than 3.70 and the pIC50 was 3.87.

Turning to `CC(C)(C)CC(C)(C)c1cc2c(O)c(c1)Cc1cc(C(C)(C)CC(C)(C)C)cc(c1O)Cc1cc(C(C)(C)CC(C)(C)C)cc(c1O)Cc1cc(C(C)(C)CC(C)(C)C)cc(c1O)Cc1cc(C(C)(C)CC(C)(C)C)cc(c1O)Cc1cc(C(C)(C)CC(C)(C)C)cc(c1O)C2`, the pEC50 is less than 5.14 and the pIC50 was less than 5.14.

In the case of `O=C(/N=C/c1c(O)c2ccccc2oc1=O)Nc1ccccc1`, the pEC50 is less than 4.77 and the pIC50 is less than 4.77.

For the compound `COC(=O)Cc1c(-c2c(CC(=O)OC)c3ccccc3n2C2OC(COC3OC(COC(C)=O)C(OC(C)=O)C(OC(C)=O)C3OC(C)=O)C(O)C(O)C2O)[nH]c2ccccc12` (stereo not drawn), the pEC50 is 3.98 and the pIC50 is 3.82.

Regarding `CCCCCCCCCCCCCCCCCCCCOC1OC(COC(C)=O)C(OC(C)=O)C(OC(C)=O)C1OC(C)=O` (stereo not drawn), the pEC50 is less than 4.45 and the pIC50 is less than 4.45.

As for `NC(Cc1ccc(N(CCCl)CCCl)cc1)C(=O)O` (stereo not drawn), the pEC50 is less than 3.70 and the pIC50 is 4.92.

With `CN1CC2CN(Cc3ccccc3)CCN2c2cccnc21` (stereo not drawn), the pEC50 is less than 3.70 and the pIC50 is 4.09.

As to `CCC(=O)OC1=C(c2ccccc2)Sc2ccc(Cl)cc2-n2cccc21`, the pEC50 is less than 3.70 and the pIC50 was 4.92.

Take `O=c1cc(-c2c(O)cc(O)cc2O)oc2cc(O)cc(O)c12`: the pEC50 was less than 3.70 and the pIC50 was less than 3.70.

Take `CC(=O)OC1(C#N)CC2OC1C1NC21` (stereo not drawn): the pEC50 was less than 3.17 and the pIC50 is less than 3.17.

Take `CCC1(CC)COP(=S)(SCCOC(=O)c2ccccc2)OC1`: the pEC50 was less than 3.70 and the pIC50 is 4.33.

For the compound `Cc1nnc(SCC2=C(C(=O)O)N3C(=O)C(NC(=O)Cn4cnnn4)C3SC2)s1` (stereo not drawn), the pEC50 is less than 3.70 and the pIC50 was less than 3.70.

Take `Cc1cc2c(c(S(=O)(=O)c3ccccc3[N+](=O)[O-])c1)NCCC2`: the pEC50 is 5.81 and the pIC50 was 4.67.

Consider `N/N=c1/nc2n(c3ncccc13)C=CNN2`, for which the pEC50 was less than 4.61 and the pIC50 is less than 4.61.

`S=C1NC(/C=C/c2ccccc2)Nc2ccccc21` (stereo not drawn): the pEC50 was less than 4.57 and the pIC50 is less than 4.57.

Take `O=c1c(O)c(-c2ccc(-c3oc4ccccc4c(=O)c3O)cc2)oc2ccccc12`: the pEC50 was less than 3.70 and the pIC50 was 4.03.

Consider `c1ccc(CN2CCC(=NN3CCCCC3)CC2)cc1`, for which the pEC50 was less than 3.70 and the pIC50 was 4.05.

For `Cc1cn(COCC[Se]c2ccccc2)c(=O)[nH]c1=O`, the pEC50 is 3.73 and the pIC50 is less than 3.70.

As to `O=C1c2cc3c(cc2CC12Cc1ccc4c(c1C2=O)CCC4)CCC3` (stereo not drawn), the pEC50 was less than 3.70 and the pIC50 was less than 3.70.

In the case of `O=C(O)c1ccc(CSc2ccccc2C(=O)O)c([N+](=O)[O-])c1`, the pEC50 was less than 3.12 and the pIC50 was less than 3.12.

Take `CNC(=O)N1CN(c2ccccc2)C2(CCN(Cc3ccccc3)CC2)C1=O`: the pEC50 was 3.71 and the pIC50 is less than 3.70.

Turning to `COC(=O)c1cccc2cccc(C(=O)N(C)CCN(C)C)c12`, the pEC50 is less than 3.15 and the pIC50 was less than 3.15.

With `NC(=O)CNC(=O)CCCCC1CCSS1` (stereo not drawn), the pEC50 was 4.29 and the pIC50 was less than 3.70.

Regarding `COc1ccc(C2c3cc(OC)c(OC)cc3C(Cc3ccc([N+](=O)[O-])cc3)C2c2ccc([N+](=O)[O-])cc2)cc1OC` (stereo not drawn), the pEC50 is less than 5.60 and the pIC50 was less than 5.60.

Consider `CC(NCCCNC(C)C(=O)O)C(=O)O` (stereo not drawn), for which the pEC50 is less than 3.18 and the pIC50 is less than 3.18.

Regarding `N=c1oc2ccc(Cl)cc2cc1C(=O)NCc1ccccc1`, the pEC50 is less than 3.70.

On to `CCCCCCCCCCCC(=O)c1c(O)cccc1O`, for which the pEC50 is less than 4.75 and the pIC50 was 4.81.

Consider `C/C(=N\NC(=O)c1ccncc1)c1ccccc1F`, for which the pEC50 was less than 3.01 and the pIC50 is 3.21.

Turning to `Cc1cc(N=Nc2ccc(NC(=O)c3ccc(NC(=O)c4ccccc4)cc3)c3ccc(S(=O)(=O)O)cc23)ccc1N=Nc1ccc2c(O)cc(S(=O)(=O)O)cc2c1`, the pEC50 is less than 4.30 and the pIC50 was less than 4.30.

Turning to `O=[N+]([O-])c1ccc(-n2nc3ccc4c(no[n+]4[O-])c3[n+]2[O-])c([N+](=O)[O-])c1`, the pEC50 is less than 4.70 and the pIC50 is 6.39.

With `Cc1ccc(/C=C/C(=O)c2sc(C(N)=S)nc2C)cc1`, the pEC50 is less than 4.07 and the pIC50 was less than 4.07.

As for `COc1ccc(C(=O)C(C(=O)CCC(=O)Nc2ccc(C)c(C)c2)c2ccc(OC)cc2)cc1` (stereo not drawn), the pEC50 was less than 4.66 and the pIC50 was less than 4.66.

As to `Clc1ccc(CSc2cnnc3ccccc23)cc1`, the pEC50 was less than 4.21 and the pIC50 was less than 4.21.

With `Cc1ccc(S(=O)(=O)N/N=C/c2oc(-c3cccc([N+](=O)[O-])c3)c(-c3cccc([N+](=O)[O-])c3)c2[N+](=O)[O-])cc1`, the pEC50 was less than 4.33 and the pIC50 was less than 4.33.

`CCOC(=O)NC(Nc1ccc(S(=O)(=O)Nc2ccc(OC)nn2)cc1)(C(F)(F)F)C(F)(F)F`: the pEC50 is less than 3.70 and the pIC50 is less than 3.70.

With `COc1ccc2c3c([nH]c2c1)CCN(CCCC(=O)c1ccc(F)cc1)C3`, the pEC50 was less than 3.70 and the pIC50 was 4.49.

Consider `CCCCC#CCC(C(=O)O)C(=O)O`, for which the pEC50 is less than 2.90 and the pIC50 was less than 2.90.

In the case of `CC12CC(C#N)(C#N)C(C#N)(CO1)C(=N)O2` (stereo not drawn), the pEC50 was less than 3.70 and the pIC50 is 4.37.

Take `CCN(CC)CCO/N=C1\CC[C@H]2[C@@H]3CC=C4C[C@@H](O)CC[C@]4(C)[C@H]3CC[C@]12C`: the pEC50 was less than 3.70 and the pIC50 is 4.81.

As for `CC(=O)c1cccc(C)c1C(=O)O`, the result was inactive.

With `O=C(Cc1ccccc1)Nn1c(-c2ccccc2)nc2ccccc2c1=O`, the pEC50 is 3.91 and the pIC50 is less than 3.70.

`COc1ccc(CCNC(=O)CCc2ccccc2CO)cc1OC`: the pEC50 was less than 3.70 and the pIC50 was less than 3.70.

In the case of `CCOC(=O)c1ccc(N2C(=O)/C(=C/c3ccc(N(CCC#N)CCC#N)cc3)N=C2c2cc([N+](=O)[O-])ccc2Cl)cc1`, the pEC50 is less than 4.92 and the pIC50 is less than 4.92.

Turning to `C/C=C(/CCC1NCCc2c1[nH]c1ccccc21)[Si](C)(C)C` (stereo not drawn), the result was inactive.

Turning to `O=Cc1c(-c2ccccc2)nc2sc(-c3ccc4c(c3)OCO4)nn12`, the result was inactive.

Consider `C=CCCCCCCCCC(=O)NCC1CC1`, for which the pEC50 was less than 3.70 and the pIC50 is less than 3.70.

For the compound `CC(=O)C1(N=Nc2ccc(S(=O)(=O)Nc3nnc(C)s3)cc2)CCOC1=O` (stereo not drawn), the pEC50 is less than 3.70 and the pIC50 was less than 3.70.

Take `Oc1ccccc1-n1nc2ccc3nonc3c2n1`: the pEC50 was less than 3.70 and the pIC50 was less than 3.70.

Take `C=C(C=O)[C@@H]1C2OC(=O)C(=C)[C@@H]2CC(O)[C@@]1(C)CC` (stereo partly drawn): the pEC50 was less than 3.82 and the pIC50 is 5.23.

Consider `N#CC(C#N)=Cc1ccc2c(c1)OC(Cl)O2` (stereo not drawn), for which the outcome was inactive.

Turning to `CN(C)CCCNc1nnc(NCCCN(C)C)c2c(=O)c3sccc3[nH]c12`, the pEC50 is less than 4.70 and the pIC50 is 5.57.

Regarding `COc1ccc(/C=C2\N=C(N3CCCC(CO)C3)NC2=O)cc1` (stereo not drawn), the pEC50 was less than 3.70 and the pIC50 was less than 3.70.

As to `CC1(C)CCCC2(C)C3C(O)CC2(C)C(O)C31` (stereo not drawn), the pEC50 was less than 3.55 and the pIC50 is less than 3.55.

Take `O=C1C=C(N2CCCC2)c2ncccc2C1=O`: the outcome was inactive.

Take `COC1=C(C)C(=O)c2nc(COC(C)=O)ccc2C1=O`: the outcome was inactive.

As to `CC(c1ccccc1)N1O[C@]12CC[C@@]1(C)C(CCCC13OCCO3)C2` (stereo partly drawn), the result was inactive.

Take `COC(=O)CCc1cccnc1/C=N/O`: the pEC50 is less than 2.92 and the pIC50 was 3.90.

Consider `COc1ccccc1N/N=c1\c2nc3ccccc3nc1n(-c1ccccc1C)c(=S)n2-c1ccc(Cl)cc1`, for which the pEC50 was less than 3.70 and the pIC50 is 3.75.

For the compound `C1OC1CN1CCC(C2CCN(CC3CO3)CC2)CC1` (stereo not drawn), the pEC50 was less than 3.70 and the pIC50 was 6.57.

With `CC(=S)N/C=C(/c1ccc(Cl)cc1Cl)S(=O)(=O)Cc1ccc(Cl)cc1Cl`, the pEC50 was less than 4.00 and the pIC50 is less than 4.00.

Turning to `N=C(CN1CCCCC1)N1CCCCC1`, the pEC50 was less than 3.70 and the pIC50 was less than 3.70.

Take `Cc1cc(NS(=O)(=O)c2ccc(NC(=O)c3cccc4c(Nc5ccc(S(N)(=O)=O)cc5)c5ccccc5nc34)cc2)no1`: the pEC50 is less than 3.83 and the pIC50 is less than 3.83.

On to `[N-]=[N+]=CC(=O)C1CCN(c2ccccc2)C1=O` (stereo not drawn), for which the pEC50 is less than 3.70 and the pIC50 is less than 3.70.

With `O=C1C(CN2CCCCC2)CCC1CN1CCCCC1` (stereo not drawn), the pEC50 was less than 3.70 and the pIC50 is 5.09.

On to `O=[P+](O)c1cccnc1`, for which the result was inactive.

As for `NC(=O)NC1=NC(Cc2ccccc2)C(=O)N1Cc1ccccc1` (stereo not drawn), the pEC50 was less than 3.70 and the pIC50 was 3.74.

Regarding `COc1ccc(C(OCC2OC3(COC(c4ccccc4)(c4ccc(OC)cc4)c4ccc(OC)cc4)C(Oc4nc(=O)ccn43)C2O)(c2ccccc2)c2ccc(OC)cc2)cc1` (stereo not drawn), the pEC50 was less than 4.00 and the pIC50 was less than 4.00.

Turning to `CCc1c(-c2ccccc2)[nH]c(=S)c(C#N)c1C`, the pEC50 is less than 3.70 and the pIC50 is less than 3.70.

On to `CC1=C2[C@H](c3ccccc3)C3C=CC2(c2ccccc23)N(C(=O)C(c2ccccc2)c2ccccc2)C1=O` (stereo partly drawn), for which the pEC50 is less than 5.82 and the pIC50 is less than 5.82.

These data come from PubChem BioAssay AID179 (DTP/NCI, 2004).
